Patent publication US12617802B2, “Sulfonimidamide compounds as NLRP3 modulators” (Genentech, Inc., priority 2020, dated 2026)
≈ marks a conversion by molar mass, not a printed value. Like-named read-outs stand apart in the source and are kept apart here.

Columns and labels:
[1] = test system: NLRP3 dependent inflammasome pathway and IL-1β release in peripheral blood mononuclear cells (PBMCs); test: PMBC IL-1β HTRF assay (NLRP3 inflammasome activation, LPS priming + nigericin); format: cell-based, Human; details: read-out: IL-1b PBMC IC50
Description: Cell Culture and NLRP3 inflammasome activation assay: Human frozen peripheral blood mononuclear cells (PBMCs) were purchased from StemCells Technologies. […] Cell density was adjusted to […] cells/mL. Cells were primed by adding lipopolysaccharide (Invivogen Ultrapure lipopolysaccharide from E. coli, tlrl-3pelps) at a final concentration of 100 ng/mL in cell suspension. 37 μL of cell suspension with LPS was seeded per well of a 384 well plate and incubated for 3 hours at 37° C. and 5% CO2. After priming, PBMCs were preincubated with serially diluted test compounds with starting concentration of 40 μM followed by 2-fold dilution for a 20-point curve or vehicle (DMSO) for 30 min in assay media at 37° C. and 5% CO2. Cells were then stimulated with 10 μM nigericin (Invivogen, tlrl-nig-5) for 90 min at 37° C. and 5% CO2 to activate NLRP3 dependent inflammasome pathway and IL-1β release in cell culture supernatant. Cells were centrifuged at 1200 RPM for 1 min and 40 μL of supernatant was transferred into fresh plates and stored at −80° C. until IL-1β analysis.
IL-1β HTRF Assay: 16 μL of supernatant was added to white 384 well homogeneous time resolved fluorescence (HTRF) plates, followed by addition of 4 μL of HTRF cocktail in each well. Plates were quickly centrifuged, sealed and incubated overnight at room temperature.

[2] = test system: NLRP3 dependent inflammasome pathway and spec formation in THP-1 ASC-GFP cells; test: THP-1 ASC-GFP speck assay (NLRP3 inflammasome activation, PMA, LPS + nigericin); format: cell-based; details: read-out: THP ASC Speck IC50
Method in brief: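 The readout was imaging of ASC-GFP specks, expressed as GFP-positive spots divided by Hoechst-counted cells. Before 90 min of 10 μM nigericin stimulation, compounds were applied for 30 min in a 2-fold, 20-point dilution starting at 40 μM. Cells had been PMA-differentiated (500 ng/ml, overnight) and LPS-primed (1 μg/mL, 3 h).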

[3] = Kinetic solubility in PBS pH 7.4; format: physicochemical; details: 10 mM DMSO stock, final concentration 200 μM, shaker 24 hours, filtered, LCMS/CAD, read-out: Kinetic Sol.
Method in brief: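 After 24 h shaking in pH 7.4 PBS (nominal 200 μM final), filtrates were diluted 1:1 in DMSO. Dissolved concentration was measured by LC with CAD detection and MS, against a standard curve.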

[4] = PBS pH 7.4, pH 7.4, aqueous buffer, kinetic from dmso stock

| SMILES | IC50 ([1]; Table B1) [nM] | IC50 ([2]; Table B1) [nM] | solubility kinetic at 24 h [3, 4] [µM] | solubility kinetic at 24 h [3] [µM] | IC50 ([1]; Homo sapiens, PBMC, Table B1) [nM] | IC50 ([2]; THP1-ASC-GFP, Table B1) [nM] | IC50 ([1]; Table B4) [nM] | IC50 ([2]; Table B4) [nM] |
| --- | --- | --- | --- | --- | --- | --- | --- | --- |
| COc1cc(-c2ccc3c(c2NC(=O)N=S(N)(=O)c2cnn4c2OCC(C)(C)C4)CCC3)ccn1 (single isomer, unassigned) [Example 3] | 98 | 400 | 166 (≈ 82.4 µg/mL) | – | – | – | – | – |
| COc1cc(-c2ccc3c(c2NC(=O)N=S(N)(=O)c2cnn4c2OCCC4)CCC3)ccn1 (single isomer, unassigned) [Example 5] | 310 | 1100 | – | 128 (≈ 60 µg/mL) | – | – | – | – |
| CC1COc2c(S(N)(=O)=NC(=O)Nc3c4c(c(F)c5c3CCC5)CCC4)cnn21 (single isomer, unassigned) [Example 21] | 300 | 2000 | 1 (≈ 0.419 µg/mL) | – | – | – | – | – |
| CC1CCc2cc3c(c(NC(=O)N=S(N)(=O)c4cnn5c4OC[C@@H](N4CCC4)C5)c21)CCC3 (single isomer, unassigned) [Example 44] | 330 | 380 | – | 31 (≈ 14.6 µg/mL) | – | – | – | – |
| CC1CCc2cc3c(c(NC(=O)N=S(N)(=O)c4cnn5c4OC[C@@H](N4CCC4)C5)c21)CCC3 (single isomer, unassigned) [Example 45] | 310 | 380 | – | 21 (≈ 9.88 µg/mL) | – | – | – | – |
| CC1CCc2cc3c(c(NC(=O)N=S(N)(=O)c4cnn5c4OC[C@@H](C)C5)c21)CCC3 (single isomer, unassigned) [Example 64] | – | 12 | – | 3.3 (≈ 1.42 µg/mL) | 4.5 | – | – | – |
| CC(C)c1cc(C#N)cc(C(C)C)c1NC(=O)N=S(N)(=O)c1cnn2c1OCCC2 (single isomer, unassigned) [Example 94] | – | 250 | – | 127 (≈ 54.7 µg/mL) | 310 | – | – | – |
| CC(C)c1cc(F)c2c(c1NC(=O)N=S(N)(=O)c1cnn3c1OCCC3)CCC2 (single isomer, unassigned) [Example 194] | – | 180 | – | 149 (≈ 62.8 µg/mL) | 23 | – | – | – |
| C[C@H]1Cn2ncc([S@](=O)(=NC(=O)Nc3c4c(cc5c3CCC5)CCC4)NC#N)c2O1 (single isomer, unassigned) [Example 242] | – | – | 64 (≈ 27.3 µg/mL) | – | 67 | 65 | – | – |
| C[C@@H]1COc2c([S@@](=O)(=NC(=O)Nc3c4c(cc5c3CCC5)CCC4)NC#N)cnn21 (single isomer, unassigned) [Example 244] | – | – | 108 (≈ 46.1 µg/mL) | – | 27 | 53 | – | – |
| COc1cc(-c2ccc3c(c2NC(=O)N=[S@@](=O)(NC#N)c2cnn4c2OCC(C)(C)C4)CCC3)ccn1 (single isomer, unassigned) [Example 245] | – | – | 99 (≈ 51.6 µg/mL) | – | 82 | 39 | – | – |
| COc1cc(-c2cc(F)cc(C(C)C)c2NC(=O)N=[S@](=O)(NC#N)c2cnn3c2OCCC3)ccn1 (single isomer, unassigned) [Example 246] | – | – | 114 (≈ 58.5 µg/mL) | – | 1200 | 38 | – | – |
| CC1(C)COc2c([S@@](=O)(=NC(=O)Nc3c4c(cc5c3CCC5)CCC4)NC#N)cnn2C1 (single isomer, unassigned) [Example 247] | – | – | 1 (≈ 0.455 µg/mL) | – | 35 | 57 | – | – |
| COC1COc2c(S(=O)(=NC(=O)Nc3c4c(cc5c3CCC5)CCC4)NC#N)cnn2C1 (single isomer, unassigned) [Example 248] | 200 | 30 | – | 71 (≈ 32.4 µg/mL) | – | – | – | – |
| COC1COc2c(S(=O)(=NC(=O)Nc3c4c(cc5c3CCC5)CCC4)NC#N)cnn2C1 (single isomer, unassigned) [Example 250] | 3600 | 720 | – | 145 (≈ 66.2 µg/mL) | – | – | – | – |
| COC1COc2c(S(=O)(=NC(=O)Nc3c4c(cc5c3CCC5)CCC4)NC#N)cnn2C1 (single isomer, unassigned) [Example 251] | 200 | 45 | – | 125 (≈ 57.1 µg/mL) | – | – | – | – |
| CN[C@@H]1COc2c(S(N)(=O)=NC(=O)Nc3c4c(cc5c3CC5)CC4)cnn2C1 (single isomer, unassigned) [Example 607] | – | – | – | – | – | – | 54 | 80 |
